Assays:
[1] = target: T1, Kappa-type opioid receptor (Homo sapiens, UniProt P41145); conditions: CHO
Description: Ability to displace U-69,593 from human recombinant Opioid receptor kappa 1 in CHO cells using [35S]- GTP-gamma S Assay

[2] = target: T2, Mu-type opioid receptor (Homo sapiens, UniProt P35372); test: Ability to displace [3H]DAMGO from human recombinant Opioid receptor mu 1 in CHO cells; assay type: cell-based
[3] = target: T1, Kappa-type opioid receptor; assay type: cell-based, CHO
Description: Ability to displace [3H]U-69593 from human recombinant Opioid receptor kappa 1 in CHO cells

[4] = target: T3, Delta-type opioid receptor (Homo sapiens, UniProt P41143); test: Ability to displace [3H]DPDPE from human recombinant Opioid receptor delta 1 in CHO cells; assay type: cell-based
T3 sequence (P41143 whole entry): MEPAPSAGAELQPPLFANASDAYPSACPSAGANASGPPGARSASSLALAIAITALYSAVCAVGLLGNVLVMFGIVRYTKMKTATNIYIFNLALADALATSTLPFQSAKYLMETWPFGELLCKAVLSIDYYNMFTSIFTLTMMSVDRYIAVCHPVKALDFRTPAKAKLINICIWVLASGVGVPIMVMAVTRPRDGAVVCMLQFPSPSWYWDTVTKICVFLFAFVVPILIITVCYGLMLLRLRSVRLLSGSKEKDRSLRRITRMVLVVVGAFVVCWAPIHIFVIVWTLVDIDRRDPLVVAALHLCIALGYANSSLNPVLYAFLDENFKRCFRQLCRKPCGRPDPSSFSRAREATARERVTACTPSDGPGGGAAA

[5] = target: T2, Mu-type opioid receptor; conditions: CHO
Description: Ability to displace DAMGO from human recombinant Opioid receptor mu 1 in CHO cells using [35S]- GTP-gamma S Assay

[6] = target: T3, Delta-type opioid receptor; conditions: CHO
Description: Ability to displace DPDPE from human recombinant Opioid receptor delta 1 in CHO cells using [35S]- GTP-gamma S Assay

T2 sequence (P35372 whole entry): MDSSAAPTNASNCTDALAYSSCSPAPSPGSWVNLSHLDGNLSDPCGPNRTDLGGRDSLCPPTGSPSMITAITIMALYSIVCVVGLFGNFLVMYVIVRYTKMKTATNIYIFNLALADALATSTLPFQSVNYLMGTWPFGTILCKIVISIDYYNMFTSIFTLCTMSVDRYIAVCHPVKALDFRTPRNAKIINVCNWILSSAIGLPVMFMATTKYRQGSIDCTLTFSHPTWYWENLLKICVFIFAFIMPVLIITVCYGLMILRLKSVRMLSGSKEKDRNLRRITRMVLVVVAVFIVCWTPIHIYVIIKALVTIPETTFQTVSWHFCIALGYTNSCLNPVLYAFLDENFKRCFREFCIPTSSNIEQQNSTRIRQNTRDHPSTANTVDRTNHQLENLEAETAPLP
T1 sequence (P41145 whole entry): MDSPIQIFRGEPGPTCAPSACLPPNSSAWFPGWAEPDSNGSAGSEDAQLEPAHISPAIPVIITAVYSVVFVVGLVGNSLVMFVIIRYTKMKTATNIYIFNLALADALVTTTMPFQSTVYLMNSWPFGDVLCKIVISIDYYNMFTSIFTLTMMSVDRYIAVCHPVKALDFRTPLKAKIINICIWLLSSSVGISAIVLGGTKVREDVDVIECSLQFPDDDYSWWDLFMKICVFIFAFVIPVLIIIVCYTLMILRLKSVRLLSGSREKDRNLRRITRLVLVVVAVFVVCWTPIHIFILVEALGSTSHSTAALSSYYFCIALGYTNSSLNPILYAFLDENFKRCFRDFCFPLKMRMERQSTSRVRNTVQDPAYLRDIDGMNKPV

| SMILES | Ke [1] [nM] | Ki [2] [nM] | Ki [3] [nM] | Ki [4] [nM] | Ke [5] [nM] | Ke [6] [nM] |
| --- | --- | --- | --- | --- | --- | --- |
| CC(C)CC(=N)NCCc1ccc2[nH]c3c(c2c1)C[C@@]1(O)C2Cc4ccc(O)c5c4[C@@]1(CCN2CC1CC1)[C@H]3O5 | 0.32 | 47.4 | 1.39 | 20.1 | 14.7 | 5.23 |
| O=C(NCCc1ccccc1)c1ccc2[nH]c3c(c2c1)C[C@@]1(O)C2Cc4ccc(O)c5c4[C@@]1(CCN2CC1CC1)[C@H]3O5 | 0.17 | 23.5 | 2.21 | 3.53 | 2.7 | 1.21 |
| CCCCCCC/N=C(\N)Cc1ccc2[nH]c3c(c2c1)C[C@@]1(O)C2Cc4ccc(O)c5c4[C@@]1(CCN2CC1CC1)[C@H]3O5 | 0.37 |  |  |  | 2.04 | 5.83 |
| CCCCCCCNC(=O)c1ccc2[nH]c3c(c2c1)C[C@@]1(O)C2Cc4ccc(O)c5c4[C@@]1(CCN2CC1CC1)[C@H]3O5 | 0.29 | 61.9 | 21.9 | 70.2 | 6.86 | 6.95 |
| CCCCCCCNC(=N)Cc1ccc2[nH]c3c(c2c1)C[C@@]1(O)C2Cc4ccc(O)c5c4[C@@]1(CCN2CC1CC1)[C@H]3O5 |  | 56.6 | 5.61 | 7.33 |  |  |
| CCCCNC(=O)NCCc1ccc2[nH]c3c(c2c1)C[C@@]1(O)C2Cc4ccc(O)c5c4[C@@]1(CCN2CC1CC1)[C@H]3O5 | 1.52 | 4.8 | 6.33 | 2.6 | 1.63 | 0.53 |
| COc1ccc(CNC(=O)c2ccc3[nH]c4c(c3c2)C[C@@]2(O)C3Cc5ccc(O)c6c5[C@@]2(CCN3CC2CC2)[C@H]4O6)cc1 | 0.28 | 4.64 | 2.11 | 7.41 | 0.94 | 6.2 |
| O=C(NCCCCc1ccccc1)c1ccc2[nH]c3c(c2c1)C[C@@]1(O)C2Cc4ccc(O)c5c4[C@@]1(CCN2CC1CC1)[C@H]3O5 | 0.26 | 37 | 6.18 | 59.5 | 2.78 | 5.15 |
| CCCCC/N=C(\N)Cc1ccc2[nH]c3c(c2c1)C[C@@]1(O)C2Cc4ccc(O)c5c4[C@@]1(CCN2CC1CC1)[C@H]3O5 | 0.21 |  |  |  | 5.61 | 3.83 |
| CC(=N)NCCc1ccc2[nH]c3c(c2c1)C[C@@]1(O)C2Cc4ccc(O)c5c4[C@@]1(CCN2CC1CC1)[C@H]3O5 | 0.21 | 22.3 | 0.29 | 21.4 | 3.78 | 1.79 |
| CCCC(=O)NCCc1ccc2[nH]c3c(c2c1)C[C@@]1(O)C2Cc4ccc(O)c5c4[C@@]1(CCN2CC1CC1)[C@H]3O5 | 0.35 | 31 | 0.85 | 3.7 | 3.17 | 0.3 |
| CCCCCNC(=N)Cc1ccc2[nH]c3c(c2c1)C[C@@]1(O)C2Cc4ccc(O)c5c4[C@@]1(CCN2CC1CC1)[C@H]3O5 |  | 25.3 | 1.44 | 17 |  |  |
| CCCNC(=N)Cc1ccc2[nH]c3c(c2c1)C[C@@]1(O)C2Cc4ccc(O)c5c4[C@@]1(CCN2CC1CC1)[C@H]3O5 |  | 13.5 | 1.6 | 5.29 |  |  |
| CCCC(=N)NCCc1ccc2[nH]c3c(c2c1)C[C@@]1(O)C2Cc4ccc(O)c5c4[C@@]1(CCN2CC1CC1)[C@H]3O5 | 0.18 | 40.8 | 0.25 | 27.6 | 4.21 | 1.89 |
| CCCCCCNC(=O)NCCc1ccc2[nH]c3c(c2c1)C[C@@]1(O)C2Cc4ccc(O)c5c4[C@@]1(CCN2CC1CC1)[C@H]3O5 | 1.71 | 13.6 | 8.13 | 2.25 | 1.79 | 1.04 |
| CCC(=O)NCCc1ccc2[nH]c3c(c2c1)C[C@@]1(O)C2Cc4ccc(O)c5c4[C@@]1(CCN2CC1CC1)[C@H]3O5 | 0.48 | 23 | 1.57 | 3.12 | 4.94 | 0.38 |
| CCC/N=C(\N)Cc1ccc2[nH]c3c(c2c1)C[C@@]1(O)C2Cc4ccc(O)c5c4[C@@]1(CCN2CC1CC1)[C@H]3O5 | 0.05 |  |  |  | 3.19 | 4.41 |
| CCNC(=O)NCCc1ccc2[nH]c3c(c2c1)C[C@@]1(O)C2Cc4ccc(O)c5c4[C@@]1(CCN2CC1CC1)[C@H]3O5 | 2.47 | 37.6 | 12.3 | 2.43 | 1.6 | 0.65 |
| CCC(=N)NCCc1ccc2[nH]c3c(c2c1)C[C@@]1(O)C2Cc4ccc(O)c5c4[C@@]1(CCN2CC1CC1)[C@H]3O5 | 0.24 | 26.4 | 0.28 | 21.8 | 4.7 | 1.77 |
| CCCCC(=N)NCCc1ccc2[nH]c3c(c2c1)C[C@@]1(O)C2Cc4ccc(O)c5c4[C@@]1(CCN2CC1CC1)[C@H]3O5 | 0.17 | 219 | 0.3 | 38.2 | 5.33 | 3.31 |
| O=C(NCc1ccccc1)c1ccc2[nH]c3c(c2c1)C[C@@]1(O)C2Cc4ccc(O)c5c4[C@@]1(CCN2CC1CC1)[C@H]3O5 | 0.73 | 43.9 | 10.3 | 11.2 | 4.4 | 2.99 |
| CCCCC(=O)NCCc1ccc2[nH]c3c(c2c1)C[C@@]1(O)C2Cc4ccc(O)c5c4[C@@]1(CCN2CC1CC1)[C@H]3O5 | 0.46 | 31.6 | 0.68 | 7.67 | 3.37 | 0.23 |

From ChEMBL document CHEMBL1145106, “The role of the side chain in determining relative delta- and kappa-affinity in C5'-substituted analogues of naltrindole” (J Med Chem, 2003)
